Drawing on ChEMBL document CHEMBL1649403, “CYP1A2-mediated biotransformation of cardioactive 2-thienylidene-3,4-methylenedioxybenzoylhydrazine (LASSBio-294) by rat liver microsomes and human recombinant CYP enzymes” (Eur J Med Chem, 2011), this text covers Stability and Activity for five compounds.

In data set [1] the test system is Liver microsomes. The data set can be described thus: Metabolic stability in rat liver microsomes in presence of CYP1A2 inhibitor furafylline. It is filed as ADME, Microsome. On the technique in general: Liver microsomes are vesicles of endoplasmic reticulum, rich in cytochrome P450 enzymes.
In a further data set the target is T1, Cytochrome P450 2C8 (Homo sapiens, UniProt P10632).
T1 sequence (P10632 whole entry): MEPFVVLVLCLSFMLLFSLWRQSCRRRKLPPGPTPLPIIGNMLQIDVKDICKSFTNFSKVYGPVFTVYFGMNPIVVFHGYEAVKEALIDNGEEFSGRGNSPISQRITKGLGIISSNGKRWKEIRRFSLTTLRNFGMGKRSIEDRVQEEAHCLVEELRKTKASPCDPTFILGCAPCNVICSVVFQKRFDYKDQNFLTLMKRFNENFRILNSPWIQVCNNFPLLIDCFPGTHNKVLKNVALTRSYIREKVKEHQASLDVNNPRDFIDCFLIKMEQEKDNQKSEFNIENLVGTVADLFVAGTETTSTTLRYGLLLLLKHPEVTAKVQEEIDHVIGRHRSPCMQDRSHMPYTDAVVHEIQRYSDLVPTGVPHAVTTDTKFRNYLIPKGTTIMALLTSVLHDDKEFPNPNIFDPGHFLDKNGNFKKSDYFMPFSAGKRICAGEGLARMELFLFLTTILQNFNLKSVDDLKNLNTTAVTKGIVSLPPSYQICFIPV
Briefly: Activity of human recombinant CYP2C8 assessed as compound remaining. The class given is ADME. As to conditions: recombinant enzyme.

In a further data set the target is Cytochrome P450 2C19 (Homo sapiens, UniProt P33261). The data set can be described thus: Activity of human recombinant CYP2C19 assessed as compound remaining. It is filed as ADME. The note with it: recombinant enzyme.
Cytochrome P450 2C19, sequence (P33261 whole entry): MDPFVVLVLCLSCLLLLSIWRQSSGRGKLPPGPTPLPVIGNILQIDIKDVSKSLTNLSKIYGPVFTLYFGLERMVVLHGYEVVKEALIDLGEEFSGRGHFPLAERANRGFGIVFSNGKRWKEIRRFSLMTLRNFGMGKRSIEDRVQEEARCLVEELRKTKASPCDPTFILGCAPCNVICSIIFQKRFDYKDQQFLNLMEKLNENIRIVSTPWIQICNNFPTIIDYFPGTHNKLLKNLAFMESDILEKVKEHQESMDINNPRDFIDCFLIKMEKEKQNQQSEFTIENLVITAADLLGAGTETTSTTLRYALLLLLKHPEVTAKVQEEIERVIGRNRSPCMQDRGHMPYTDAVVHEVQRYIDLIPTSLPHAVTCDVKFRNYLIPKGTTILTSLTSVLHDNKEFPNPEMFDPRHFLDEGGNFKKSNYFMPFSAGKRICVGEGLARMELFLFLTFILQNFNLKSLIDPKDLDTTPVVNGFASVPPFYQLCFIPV
The next data set deals with Cytochrome P450 2D6 (Homo sapiens, UniProt P10635). The data set can be described thus: Activity of human recombinant CYP2D6 assessed as compound remaining. As to conditions: recombinant enzyme. The class given is ADME.
Cytochrome P450 2D6, sequence (P10635 whole entry): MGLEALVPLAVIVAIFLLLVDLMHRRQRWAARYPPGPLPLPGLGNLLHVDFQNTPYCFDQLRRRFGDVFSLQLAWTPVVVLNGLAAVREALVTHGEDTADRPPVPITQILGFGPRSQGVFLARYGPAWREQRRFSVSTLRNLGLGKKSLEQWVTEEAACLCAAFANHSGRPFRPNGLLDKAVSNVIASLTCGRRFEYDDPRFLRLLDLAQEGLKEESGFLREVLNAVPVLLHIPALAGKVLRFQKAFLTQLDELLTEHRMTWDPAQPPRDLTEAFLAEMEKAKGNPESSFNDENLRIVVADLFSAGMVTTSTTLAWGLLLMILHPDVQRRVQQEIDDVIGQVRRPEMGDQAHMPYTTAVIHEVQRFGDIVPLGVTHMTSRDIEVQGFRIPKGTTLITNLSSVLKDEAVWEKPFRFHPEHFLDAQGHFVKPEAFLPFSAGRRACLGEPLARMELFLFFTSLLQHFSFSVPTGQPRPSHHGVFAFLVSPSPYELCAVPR
The next data set concerns the target Cytochrome P450 3A5 (Homo sapiens, UniProt P20815). Briefly: Activity of human recombinant CYP3A5 assessed as compound remaining. It is filed as ADME. As to conditions: recombinant enzyme.
Another data set addresses Cytochrome P450 3A4 (Homo sapiens, UniProt P08684). The data set can be described thus: Activity of human recombinant CYP3A4 assessed as compound remaining. It is filed as ADME. As to conditions: recombinant enzyme.
For another data set, the target named is Cytochrome P450 2C9 (Homo sapiens, UniProt P11712). The data set can be described thus: Activity of human recombinant CYP2C9 assessed as compound remaining. The class given is ADME. The note with it: recombinant enzyme.
Cytochrome P450 2C9, sequence (P11712 whole entry): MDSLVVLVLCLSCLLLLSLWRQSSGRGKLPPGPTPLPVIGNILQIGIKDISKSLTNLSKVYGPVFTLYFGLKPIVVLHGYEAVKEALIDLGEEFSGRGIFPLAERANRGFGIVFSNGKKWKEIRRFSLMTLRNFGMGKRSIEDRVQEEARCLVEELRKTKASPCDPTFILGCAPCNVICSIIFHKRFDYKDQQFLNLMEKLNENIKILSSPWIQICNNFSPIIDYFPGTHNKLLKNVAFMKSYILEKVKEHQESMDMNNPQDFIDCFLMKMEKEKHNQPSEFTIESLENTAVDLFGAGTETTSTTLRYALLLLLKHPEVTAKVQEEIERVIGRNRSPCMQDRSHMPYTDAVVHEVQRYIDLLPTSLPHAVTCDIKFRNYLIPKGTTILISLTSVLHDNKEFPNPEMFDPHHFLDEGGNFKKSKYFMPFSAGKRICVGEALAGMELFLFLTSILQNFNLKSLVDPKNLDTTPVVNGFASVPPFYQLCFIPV
A further data set deals with T2, Cytochrome P450 2B6 (Homo sapiens, UniProt P20813).
T2 sequence (P20813 whole entry): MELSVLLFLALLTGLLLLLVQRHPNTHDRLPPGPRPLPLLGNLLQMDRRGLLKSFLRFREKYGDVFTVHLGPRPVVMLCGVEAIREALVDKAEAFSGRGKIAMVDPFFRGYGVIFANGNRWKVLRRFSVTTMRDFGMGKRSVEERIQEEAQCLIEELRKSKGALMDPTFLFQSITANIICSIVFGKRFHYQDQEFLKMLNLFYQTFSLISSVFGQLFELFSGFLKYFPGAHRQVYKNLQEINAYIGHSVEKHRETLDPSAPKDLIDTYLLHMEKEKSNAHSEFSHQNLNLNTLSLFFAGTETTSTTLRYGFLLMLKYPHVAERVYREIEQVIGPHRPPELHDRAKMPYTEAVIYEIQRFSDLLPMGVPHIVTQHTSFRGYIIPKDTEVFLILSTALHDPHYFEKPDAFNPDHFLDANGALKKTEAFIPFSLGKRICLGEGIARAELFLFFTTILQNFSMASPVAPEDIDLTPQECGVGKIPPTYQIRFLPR
Briefly: Activity of human recombinant CYP2B6 assessed as compound remaining. The note with it: recombinant enzyme. It is filed as ADME.

The next data set deals with T3, Cytochrome P450 1A2 (Homo sapiens, UniProt P05177).
T3 sequence (P05177 whole entry): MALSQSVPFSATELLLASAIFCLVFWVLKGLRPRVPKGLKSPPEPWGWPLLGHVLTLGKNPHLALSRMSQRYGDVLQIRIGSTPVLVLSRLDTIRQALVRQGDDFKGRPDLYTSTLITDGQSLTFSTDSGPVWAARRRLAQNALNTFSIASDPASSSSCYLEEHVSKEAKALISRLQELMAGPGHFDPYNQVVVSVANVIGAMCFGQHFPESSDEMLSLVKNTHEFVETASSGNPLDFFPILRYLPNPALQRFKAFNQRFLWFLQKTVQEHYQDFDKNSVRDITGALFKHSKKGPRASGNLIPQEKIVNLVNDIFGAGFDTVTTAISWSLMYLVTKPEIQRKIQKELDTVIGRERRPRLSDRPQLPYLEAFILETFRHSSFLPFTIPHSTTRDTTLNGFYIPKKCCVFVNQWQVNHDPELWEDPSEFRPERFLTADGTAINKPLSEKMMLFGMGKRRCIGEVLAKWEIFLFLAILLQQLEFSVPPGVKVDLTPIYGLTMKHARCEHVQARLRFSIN
The data set can be described thus: Activity of human recombinant CYP1A2 assessed as compound remaining. It is filed as ADME. The note with it: recombinant enzyme.

In data set [2] the test system is Liver microsomes. The data set can be described thus: Metabolic stability in rat liver microsomes in presence of non-selective cytochrome P450 inhibitor ketoconazole. The class given is ADME, Microsome.
Data set [3] deals with Liver microsomes. The data set can be described thus: Metabolic stability in rat liver microsomes in presence of CYP2D6 inhibitor quinidine. It is filed as ADME, Microsome.
For data set [4], the system named is Liver microsomes. The data set can be described thus: Metabolic stability in rat liver microsomes in presence of CYP2C9 inhibitor sulfaphenazole. It is filed as ADME, Microsome.

SMILES strings stand for the structures.

Cytochrome P450 3A4, sequence (P08684 whole entry): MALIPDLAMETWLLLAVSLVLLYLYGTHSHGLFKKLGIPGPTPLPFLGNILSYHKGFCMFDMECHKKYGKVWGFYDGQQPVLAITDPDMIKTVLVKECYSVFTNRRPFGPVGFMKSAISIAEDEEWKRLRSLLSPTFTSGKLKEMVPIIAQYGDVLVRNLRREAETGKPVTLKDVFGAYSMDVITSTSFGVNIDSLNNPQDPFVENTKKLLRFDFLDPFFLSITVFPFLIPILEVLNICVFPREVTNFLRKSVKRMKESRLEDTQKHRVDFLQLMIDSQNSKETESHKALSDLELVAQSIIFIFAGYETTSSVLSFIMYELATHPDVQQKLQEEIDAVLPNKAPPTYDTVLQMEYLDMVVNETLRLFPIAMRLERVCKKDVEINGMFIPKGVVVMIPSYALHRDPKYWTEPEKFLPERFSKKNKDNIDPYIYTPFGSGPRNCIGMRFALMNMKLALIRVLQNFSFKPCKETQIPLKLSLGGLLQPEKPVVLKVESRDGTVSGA
Cytochrome P450 3A5, sequence (P20815 whole entry): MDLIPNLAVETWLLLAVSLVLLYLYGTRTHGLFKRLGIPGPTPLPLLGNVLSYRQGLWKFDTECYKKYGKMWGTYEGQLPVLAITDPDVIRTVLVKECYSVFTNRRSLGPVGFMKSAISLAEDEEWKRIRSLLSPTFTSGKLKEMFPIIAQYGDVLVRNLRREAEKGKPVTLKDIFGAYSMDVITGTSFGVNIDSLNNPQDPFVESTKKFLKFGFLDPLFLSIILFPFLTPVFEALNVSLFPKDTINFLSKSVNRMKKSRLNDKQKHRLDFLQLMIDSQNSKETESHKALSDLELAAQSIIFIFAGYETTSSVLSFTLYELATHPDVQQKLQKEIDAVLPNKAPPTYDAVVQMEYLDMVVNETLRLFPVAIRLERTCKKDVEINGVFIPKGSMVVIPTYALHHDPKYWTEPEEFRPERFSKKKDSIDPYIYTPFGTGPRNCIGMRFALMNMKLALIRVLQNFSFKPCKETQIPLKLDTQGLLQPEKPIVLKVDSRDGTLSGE

Regarding `Cc1nc2c([nH]1)c(=O)n(C)c(=O)n2Cc1ccco1` [FURAFYLLINE], the Stability with Liver microsomes [1] turned out to be 0.12 µM.

Regarding `O=C(N/N=C/c1cccs1)c1ccc2c(c1)OCO2`, the Activity on Cytochrome P450 2C8 turned out to be 99%; at Cytochrome P450 2C19, 96%; on Cytochrome P450 2D6 it was 95%; on Cytochrome P450 3A5 it was 100%; at Cytochrome P450 3A4, 92%; on Cytochrome P450 2C9 it was 81%. Besides, the results for the Activity on Cytochrome P450 2B6 and on Cytochrome P450 1A2 were 98% and 67%, respectively.

On to `CC(=O)N1CCN(c2ccc(OCC3COC(Cn4ccnc4)(c4ccc(Cl)cc4Cl)O3)cc2)CC1` (configuration not stated) [KETOCONAZOLE], for which the Stability in the data set with Liver microsomes [2] was 0.31 µM.

As to `C=C[C@H]1C[N@@]2CC[C@H]1C[C@@H]2[C@@H](O)c1ccnc2ccc(OC)cc12` [QUINIDINE], the Stability in the data set on Liver microsomes [3] worked out at 0.91 µM.

Take `Nc1ccc(S(=O)(=O)Nc2ccnn2-c2ccccc2)cc1` [SULFAPHENAZOLE]: the Stability in the data set on Liver microsomes [4] came to 0.85 µM.
